Data from EP2943187B1, “USE OF GLYCYL GLUTAMINE AGAINST DEPRESSION” (Uludag Universitesi Teknoloji Transfer Ofisi Ticaret ve …, priority 2013, dated 2014).
Peptide text beside a SMILES is read from it.

Experiments:
[1] = tested on: serotonin output at the nucleus accumbency section of the brain; test: Brain micro-dialysis, serotonin output; assay type: in vivo, rats; details: single intracerebroventricular 100 nmol dose, 2 hours of monitoring, versus saline; p<0.001
Procedure: The source of the antidepressant effects of Gly-Gln, which is mentioned in the figure descriptions above, have been analyzed and shown in Figures 4 and 5. In Figures 4 and 5; the effect of Gly-Gln on the serotonin output at the nucleus accumbency section of the brain upon intracerebroventricular Gly-Gln injection can be seen. […] An increase in serotonin outputs can be observed in all time intervals throughout 2 hours of monitoring period following the Gly-Gln injection; however, no serotonin output could be observed from the rodents in the control group who had been administered saline injections by the same way. Serotonin, which is structurally a monoamine neurotransmitter, is a hormone, which makes people feel happy, energetic and lively. When, the subject matter hormone serotonin is deficient in people, they feel depressive, tired and boring. […] Furthermore, the word "Saline" indicated in Figure 4 and 5 means salty water. It is used for comparing with the tested medication by administering on the control group.

[2] = tested on: GABA levels in the brain; test: GABA levels in the brain after administration (unpublished data); assay type: in vivo; details: Gly-Gln administration; unpublished data from applicant's laboratory
Text: This innovation is related with the use of glycyl-glutamine in the treatment and/or prophylaxis of depression disorder and/or anxiety, which meets all above-mentioned requirements, eliminates all disadvantages and provides some advantages. The purpose of the current invention is to use Glycyl-Glutamine (Gly-Gln) in the treatment and/or prophylaxis of depression and/or anxiety via its effects in the brain other than its metabolic products' (glycine and glutamine) separate effects. […] Glutamine exerts antidepressant effects by increasing gamma-aminobutyric acid (GABA) in the brain however Gly-Gln generates antidepressant effects by increasing serotonin levels in the brain.

[3] = Storage stability; assay type: physicochemical
Procedure: After, it is diluted by saline; it can be stored in a refrigerator at +4°C between 24-48 hours. It can be stored in room temperature for 10-12 hours.

[4] = tested on: rodents; test: Forced Swimming Test; assay type: in vivo, rats; details: intracerebroventricular, 100 nmol/10 µl, n=12
Text: It has been proven as a result of the tests performed on animals that Glycyl-glutamine is therapeutic on depression and anxiety disorders. These aforementioned studies have been performed by means of "the Forced Swimming Test" method, which is the most applied animal model, used in antidepressant treatment surveys. The forced swimming test had been developed by Porsolt et al., (1978) and it is the most applied animal model in depression surveys especially the antidepressant treatment surveys. […] After the same animal is placed in the same tank twenty-four hours after the first time, it is observed that the time passes until inactivity reduces. Inactivity is expressed as losing behaviors of trying to escape in other words "behavioral helplessness". The forced swimming test is a similar response to learned helplessness. The efforts spent for an escape comes to an end for the animal, which understands it is exposed to a stress it will not be able to escape. Thus, it can be understood by that test model whether the antidepressant medications, which are administered before the second administration, show antidepressant effects or not. In practice, the post-treatment behaviors of the animal change for reducing behavioral helplessness. The time passed until inactivity is extended by means of acute or short-term antidepressant treatments and total time of inactivity is decreased. […] Because, it is an easy to apply practice, this model is used extensively (Cryan et al., 2002).
In Figure 1, the effect of intracerebroventricular Gly-Gln injection on the first term of inactivity. When, Gly-Gln has been administered centrally, it has extended the time passed until first inactivity compared to the control animals. While, the time passed until first inactivity of the rodents which have been centrally administered saline (10 µl) has been 14,9 ± 2,8 seconds (n=14), the time passed until first inactivity of the rodent which have been applied Gly-Gln (100 nmol/10 µl) by that same way has been increased to 28,1 ± 6,1 seconds (n=12), (p<0,05).
In Figure 2, the effect of intracerebroventricular Gly-Gln injection on the total term of inactivity. When, Gly-Gln has been administered centrally, it has reduced the total time time of inactivity compared to the control animals. While, the total inactivity time of the rodents which have been centrally administered saline (10 µl) has been 229.4 ± 8.9 seconds (n=14), the time passed until first inactivity of the rodent which have been applied Gly-Gln (100 nmol/10 µl) by the same way has been increased to 172.5 ± 12.8 seconds (n=12), (p<0,001).
In Figure 3, the effect of intracerebroventricular Gly-Gln injection on the escalation and swimming times. […]

storage time, diluted by saline ([3]; refrigerator at +4°C): 24 to 48 h
storage time, non-diluted form ([3]; refrigerator at -20°C): very long period of time
storage time, diluted by saline ([3]; room temperature): 10 to 12 h
Compound: NCC(=O)N[C@@H](CCC(N)=O)C(=O)O [Gly-Gln, glycyl-glutamine] (H-Gly-Gln-OH)
serotonin output at the nucleus accumbency section of the brain [1]: extremely increased
GABA levels in the brain [2]: decrease
time passed until first inactivity ([4]; saline control 14,9 ± 2,8 seconds (n=14), p<0,05): 28,1 ± 6,1 seconds
swimming time ([4]; saline control 26,7 ± 2,9 seconds (n=14), p>0.05): 36,8 ± 4,3 seconds
escalation time ([4]; saline control 43,9 ± 7,0 seconds (n=14)): 90,8 ± 11,4 seconds
total inactivity time ([4]; saline control 229.4 ± 8.9 seconds (n=14), p<0,001): 172.5 ± 12.8 s
